We go through 23 molecules from US20250154115A1, “ARYLBENZOISOXAZOLE COMPOUNDS AS IP6K AND IPMK INHIBITORS AND METHODS OF USE THEREOF” (THE UNIVERSITY OF NORTH CAROLINA AT CHAPEL HILL, priority 2022, published 2025).

Broadly, the pIC50 is the IC50 on a negative log10 scale, so that one unit is a factor of ten. Low readings indicate a large IC50, high ones a small IC50.

What all share (type): biochemical
For one test, the target named is IP6K2 (Homo sapiens (Human), UniProt Q9UHH9). The test can be described thus: Enzyme-coupled assay of IP6K2 activity (Dipp1-coupled, malachite green Pi release). On the procedure:
(§1) […] The cells were disrupted using a constant cell disruption system (Constant Systems) under 20 kPsi.
(§2) Pi release was determined with a malachite green colorimetric assay.^45 Where indicated, TNP (Cayman Chemical) was added to the assays (FIG. 2A-E).

A further test has as its target IP6K1 (Homo sapiens (Human), UniProt Q92551). Description: Enzyme-coupled assay of IP6K1 activity (Dipp1-coupled, malachite green Pi release). On the procedure:
as §1, §2

The target in another test is IP6K3 (Homo sapiens (Human), UniProt Q96PC2). Description: Enzyme-coupled assay of IP6K3 activity (Dipp1-coupled, malachite green Pi release).
Sequence of IP6K3 (Q96PC2 whole entry): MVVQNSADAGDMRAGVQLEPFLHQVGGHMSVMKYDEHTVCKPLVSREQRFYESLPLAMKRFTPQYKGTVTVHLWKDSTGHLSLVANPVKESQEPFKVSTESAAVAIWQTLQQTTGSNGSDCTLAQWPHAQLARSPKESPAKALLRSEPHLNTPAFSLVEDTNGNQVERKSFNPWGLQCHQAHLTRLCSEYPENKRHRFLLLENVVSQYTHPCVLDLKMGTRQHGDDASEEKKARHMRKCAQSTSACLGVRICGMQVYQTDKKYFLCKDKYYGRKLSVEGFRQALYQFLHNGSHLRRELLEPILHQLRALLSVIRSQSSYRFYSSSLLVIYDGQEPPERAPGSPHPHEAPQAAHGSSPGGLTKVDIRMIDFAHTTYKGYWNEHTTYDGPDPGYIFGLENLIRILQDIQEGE
The target in another test is IPMK (Homo sapiens (Human), UniProt Q8NFU5). Description: Enzyme-coupled assay, IPMK IC50.
Sequence of IPMK (Q8NFU5 whole entry, species assumed): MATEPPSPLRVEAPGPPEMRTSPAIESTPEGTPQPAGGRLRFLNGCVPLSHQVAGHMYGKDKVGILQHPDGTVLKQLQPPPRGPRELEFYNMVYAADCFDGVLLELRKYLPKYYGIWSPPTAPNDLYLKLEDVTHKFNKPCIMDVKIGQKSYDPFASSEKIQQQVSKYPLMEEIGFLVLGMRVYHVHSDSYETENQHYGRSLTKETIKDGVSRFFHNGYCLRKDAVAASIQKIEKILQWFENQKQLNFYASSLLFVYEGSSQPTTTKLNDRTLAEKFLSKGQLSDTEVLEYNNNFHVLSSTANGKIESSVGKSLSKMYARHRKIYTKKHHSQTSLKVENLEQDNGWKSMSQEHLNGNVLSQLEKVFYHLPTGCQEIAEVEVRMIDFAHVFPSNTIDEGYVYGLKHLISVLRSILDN
Setting [1] is: determined from enzyme-coupled assays.

Structures are written as SMILES. pIC50: −log10 of the molar value.

Sequence of IP6K2 (Q9UHH9 whole entry): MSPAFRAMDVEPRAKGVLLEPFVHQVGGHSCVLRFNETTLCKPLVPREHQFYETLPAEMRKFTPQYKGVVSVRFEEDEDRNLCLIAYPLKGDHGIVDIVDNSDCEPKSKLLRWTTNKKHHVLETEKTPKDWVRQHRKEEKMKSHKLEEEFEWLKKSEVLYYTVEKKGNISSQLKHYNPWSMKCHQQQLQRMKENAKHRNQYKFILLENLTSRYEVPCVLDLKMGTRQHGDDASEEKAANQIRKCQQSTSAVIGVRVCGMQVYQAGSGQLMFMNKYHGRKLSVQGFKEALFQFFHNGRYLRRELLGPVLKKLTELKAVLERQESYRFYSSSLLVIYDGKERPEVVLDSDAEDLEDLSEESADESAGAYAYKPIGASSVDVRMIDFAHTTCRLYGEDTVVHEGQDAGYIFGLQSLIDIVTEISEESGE
Sequence of IP6K1 (Q92551 whole entry): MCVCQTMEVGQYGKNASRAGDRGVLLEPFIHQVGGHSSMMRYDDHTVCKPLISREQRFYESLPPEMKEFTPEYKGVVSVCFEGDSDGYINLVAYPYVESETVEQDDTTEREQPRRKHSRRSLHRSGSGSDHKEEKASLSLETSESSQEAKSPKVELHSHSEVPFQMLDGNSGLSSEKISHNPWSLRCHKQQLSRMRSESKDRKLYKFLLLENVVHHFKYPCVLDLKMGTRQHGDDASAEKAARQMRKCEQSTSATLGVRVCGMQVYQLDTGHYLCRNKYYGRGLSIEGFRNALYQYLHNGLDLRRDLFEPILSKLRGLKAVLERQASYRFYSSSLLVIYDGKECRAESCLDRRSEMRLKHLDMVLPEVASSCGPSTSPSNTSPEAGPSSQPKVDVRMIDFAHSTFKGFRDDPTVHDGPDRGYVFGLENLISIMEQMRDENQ

In the case of `O=C(O)c1ccc2onc(-c3ccccc3)c2c1` [Cmpd 91], the pIC50 is 4.00 to 6.00 at IP6K2 (enzyme-coupled assay, Table 6); 4.00 to 6.00 against IP6K1 (enzyme-coupled assay, Table 6); 6.00 to 7.00 at IP6K3 (enzyme-coupled assay, Table 6).
In the case of `O=c1[nH]c(-c2ccc3noc(-c4ccccc4)c3c2)no1` [Cmpd 124], the negative logarithm of the IC50 (pIC50) at IPMK (setting [1]) was 7.00 to 8.00; on IP6K2 (setting [1]), 6.00 to 7.00; against IP6K1 (setting [1]), 6.00 to 7.00; on IP6K3 (setting [1]), 6.00 to 7.00.
In the case of `O=c1[nH]c(-c2ccc3noc(-c4ccc(-c5ccccc5)cc4)c3c2)no1` [Cmpd 125], the pIC50 was greater than 8.00 at IPMK (setting [1]), 7.00 to 8.00 on IP6K2 (setting [1]), 7.00 to 8.00 at IP6K1 (setting [1]) and greater than 8.00 against IP6K3 (setting [1]).
Regarding `O=C(Nc1ccc(-c2onc3ccc(-c4noc(=O)[nH]4)cc23)cc1)C1CC1` [Cmpd 126], the negative-log IC50 (pIC50) against IPMK (setting [1]) is 7.00 to 8.00; at IP6K2 (setting [1]), 6.00 to 7.00; against IP6K1 (setting [1]), 6.00 to 7.00; against IP6K3 (setting [1]), 7.00 to 8.00.
Regarding `CN(C)C(=O)/C=C/c1ccc2noc(-c3ccccc3)c2c1` [Compound 9], the “IP6K3 IC50” value on IP6K3 (enzyme-coupled assay, Table 1) is reported as “−”.
In the case of `O=C(O)/C=C/c1ccc2noc(-c3ccccc3)c2c1` [Compound 10], the negative logarithm of the IC50 (pIC50) at IP6K1 (enzyme-coupled assay, Table 1) was 6.00 to 7.00; against IP6K3 (enzyme-coupled assay, Table 1), 4.00 to 6.00.
Take `Cc1cc(C)cc(-c2onc3ccc(/C=C/C(=O)O)cc23)c1` [Compound 11]: the pIC50 on IP6K2 (enzyme-coupled assay, Table 1) is 6.00 to 7.00; against IP6K1 (enzyme-coupled assay, Table 1) it was 6.00 to 7.00; against IP6K3 (enzyme-coupled assay, Table 1) it was 6.00 to 7.00.
The molecule `O=C(O)/C=C/c1ccc2noc(-c3ccc(OC(F)(F)F)cc3)c2c1` [Compound 14] had a negative logarithm of the IC50 (pIC50) at IP6K3 (enzyme-coupled assay, Table 1) of 4.00 to 6.00.
The same measure, in the same setting: the figure for `O=C(O)/C=C/c1ccc2noc(-c3ccc(Oc4ccccc4)cc3)c2c1` [Compound 15] is 6.00 to 7.00.
The molecule `O=C(O)/C=C/c1ccc2noc(-c3ccc(-c4ccccc4)cc3)c2c1` [Compound 16] gave a negative logarithm of the IC50 (pIC50) against IP6K3 (enzyme-coupled assay, Table 1) of 6.00 to 7.00.
Regarding `Cc1cc(C)cc(-c2onc3ccc([C@@H]4C[C@H]4C(=O)O)cc23)c1` [Compound 17], the pIC50 against IP6K2 (enzyme-coupled assay, Table 1) is 7.00 to 8.00; at IP6K1 (enzyme-coupled assay, Table 1) it was 7.00 to 8.00; against IP6K3 (enzyme-coupled assay, Table 1) it was 4.00 to 6.00.
As for `Cc1cccc(-c2onc3ccc(C(=O)O)cc23)c1` [Compound 18, 3-(m-tolyl)benzo[c]isoxazole-5-carboxylic acid], the “IPMK IC50” value at IPMK (enzyme-coupled assay, Table 2) is listed as “−”. The molecule further showed a pIC50 on IP6K3 (enzyme-coupled assay, Table 2) of 4.00 to 6.00.
As for `Cc1cc(C)cc(-c2onc3ccc(C(=O)O)cc23)c1` [Compound 19], the pIC50 against IPMK (enzyme-coupled assay, Table 2) was 6.00 to 7.00; at IP6K3 (enzyme-coupled assay, Table 2), 4.00 to 6.00.
Turning to `CC(C)NC(=O)c1ccc2noc(-c3ccccc3)c2c1` [Compound 22], the “IPMK IC50” value at IPMK (enzyme-coupled assay, Table 2) is recorded as “−”. Also, the negative logarithm of the IC50 (pIC50) at IP6K2 (enzyme-coupled assay, Table 2) is 6.00 to 7.00; against IP6K1 (enzyme-coupled assay, Table 2) it was 4.00 to 6.00; against IP6K3 (enzyme-coupled assay, Table 2) it was 4.00 to 6.00.
In the case of `O=C(O)c1ccc2noc(-c3ccc(Oc4ccccc4)cc3)c2c1` [Compound 24], the pIC50 at IPMK (enzyme-coupled assay, Table 2) was 6.00 to 7.00; against IP6K3 (enzyme-coupled assay, Table 2), 6.00 to 7.00.
On to `CNC(=O)c1ccc2noc(-c3ccc(-c4ccccc4)cc3)c2c1` [Compound 26], for which the pIC50 on IPMK (enzyme-coupled assay, Table 2) is 7.00 to 8.00; against IP6K2 (enzyme-coupled assay, Table 2), 6.00 to 7.00; at IP6K1 (enzyme-coupled assay, Table 2), 7.00 to 8.00; at IP6K3 (enzyme-coupled assay, Table 2) it was 6.00 to 7.00.
On to `O=C(O)c1ccc2noc(-c3ccc(Oc4ncc(Cl)cc4Cl)cc3)c2c1` [Compound 28], for which the pIC50 against IPMK (enzyme-coupled assay, Table 2) was 4.00 to 6.00; against IP6K1 (enzyme-coupled assay, Table 2), 6.00 to 7.00; against IP6K3 (enzyme-coupled assay, Table 2) it was 4.00 to 6.00.
Take `O=C(O)c1ccc2noc(-c3cccc(Oc4ccccn4)c3)c2c1` [Compound 29]: the pIC50 was 4.00 to 6.00 against IPMK (enzyme-coupled assay, Table 2) and 4.00 to 6.00 at IP6K3 (enzyme-coupled assay, Table 2).
On to `O=C(O)c1ccc2noc(-c3cccc(Oc4ncc(Cl)cc4Cl)c3)c2c1` [Compound 30], for which the negative-log IC50 (pIC50) on IPMK (enzyme-coupled assay, Table 2) is 7.00 to 8.00; against IP6K3 (enzyme-coupled assay, Table 2), 4.00 to 6.00.
As to `O=C(O)c1ccc2noc(-c3cccc(Oc4ccccc4)c3)c2c1` [Compound 33], the pIC50 is 7.00 to 8.00 against IPMK (enzyme-coupled assay, Table 2) and 6.00 to 7.00 against IP6K3 (enzyme-coupled assay, Table 2).
`O=C(O)c1ccc2noc(-c3cccc(-c4ccccc4)c3)c2c1` [Compound 34]: the negative-log IC50 (pIC50) against IPMK (enzyme-coupled assay, Table 2) is 7.00 to 8.00; on IP6K2 (enzyme-coupled assay, Table 2) it was 6.00 to 7.00; against IP6K3 (enzyme-coupled assay, Table 2), 6.00 to 7.00.
In the case of `O=C(O)c1ccc2noc(-c3ccc(NC(=O)C4CC4)cc3)c2c1` [Compound 35], the pIC50 at IPMK (enzyme-coupled assay, Table 2) was 4.00 to 6.00; against IP6K2 (enzyme-coupled assay, Table 2), 4.00 to 6.00; at IP6K1 (enzyme-coupled assay, Table 2) it was 4.00 to 6.00; against IP6K3 (enzyme-coupled assay, Table 2) it was 6.00 to 7.00.
As to `CC(C)C(=O)Nc1ccc(-c2onc3ccc(C(=O)O)cc23)cc1` [Compound 36], the pIC50 was 4.00 to 6.00 against IPMK (enzyme-coupled assay, Table 2); 6.00 to 7.00 on IP6K2 (enzyme-coupled assay, Table 2); 6.00 to 7.00 against IP6K3 (enzyme-coupled assay, Table 2).
